Experimental data as given in article PMC5354814, “In silico and in vitro drug screening identifies new therapeutic approaches for Ewing sarcoma” (Oncotarget, 2016).

Columns and labels:
[1] = Formulation and PK studies of auranofin (blood gold, ICPMS); assay type: in vivo, BALB/c mice
Protocol: Ridaura® (auranofin) is typically delivered orally (capsules containing 3 mg auranofin) and has been repurposed in several clinical trials with limited results (i.e., clinicaltrials.gov identifier: NCT01419691, NCT02126527, and NCT02126527). […] Additionally, the ability to increase the dose of auranofin to achieve higher blood concentrations of gold was limited by dose-limiting gastrointestinal side effects (diarrhea, loose stools, nausea, vomiting and abdominal cramps). For our studies we dosed BALB/c mice orally at 10 mg/Kg with different formulations of auranofin suspensions prepared in 0.5% hydroxypropyl methyl cellulose to help assure dose uniformity. We compared the ground contents of Ridaura® capsules, the ground pure auranofin drug substance, auranofin suspension containing 0.5% sodium lauryl sulfate (a surfactant), auranofin suspensions with the pH adjusted to pH = 1, 4 and 7, auranofin suspension dosed into fasted versus high fat diet mice and finally a solution of auranofin prepared in 5% dimethyl sulfoxide (DMSO) with a pH = 1. Pharmacokinetic studies were conducted on all of these formulation variations. Blood samples from 3 mice at each time point (0, 1, 2, 4, 8, 12, 24, 48 and 96 hours) and the whole blood was assayed by ICPMS for gold.
We additionally studied dose accumulation of the gold by comparing a formulation of Ridaura® capsule contents as described above and dosing at 10 mg/Kg single dose versus dosing the mice once daily for 5 days. The PK study compared the gold content in whole blood samples as described above for the single dose versus the gold content in whole blood samples from the multidose arm with whole blood collected at the end of each 24 hour dosing period before the next dose (24, 48, 72, 96 and 120 hours) and then whole blood collected every 24 hours for 5 additional days (144, 168, 192, 216 and 240 hours) and assayed for gold content. The results of these formulation and PK studies are shown in Supplementary Table S2.
These findings led us to develop and assess injectable (i.v. and i.p.) formulations of auranofin. By defining maximum tolerated dose (MTD) following i.v. and i.p. administration of solution and suspension formulations of auranofin, our intent was to evaluate auranofin alone and in combination with ganetespib at MTD in mouse xenograft studies using the more convenient i.p. route of administration. Following administration of the solution formulation of auranofin i.v. and i.p., the maximum tolerated dose was estimated at 1 mg/kg and 6 mg/kg, respectively. Following a single i.p. suspension dose of auranofin, the maximum tolerated dose was 16 mg/kg. This dose was reduced to 12 mg/kg and dose tolerance was evaluated after 5 daily doses of auranofin suspension i.p. to determine the effects of the accumulation of gold in the blood due to the slow elimination of gold. Based on the i.p. suspension dose tolerance studies, the auranofin suspension formulation and dose level of 12 mg/kg was selected for evaluation in xenograft mouse studies.

[2] = design: method as in ref 18, ref 19; conditions: cited from earlier work
[3] = design: method as in ref 19 (a number printed in a supplementary file, which may have a reference list of its own: not looked up in the article's list); conditions: dog, cited from earlier work
mouse spleen cells = system: mouse spleen cells; design: method as in ref 19 (a number printed in a supplementary file, which may have a reference list of its own: not looked up in the article's list); conditions: 1 x 10^-4M and 1 x 10^-5M; cited from earlier work
[4] = design: method as in ref 19 (a number printed in a supplementary file, which may have a reference list of its own: not looked up in the article's list); conditions: rats, 2 - 40 mg auranofin/kg p.o.; cited from earlier work
[5] = design: method as in ref 19 (a number printed in a supplementary file, which may have a reference list of its own: not looked up in the article's list); conditions: rats, cited from earlier work
[6] = Suspension, single 10 mg/kg Oral

CC(=O)OC[C@H]1O[C@@H]([S-])[C@H](OC(C)=O)[C@@H](OC(C)=O)[C@@H]1OC(C)=O.CCP(CC)CC.[Au+] [Auranofin, auranofin]
Cmax ([1]; Solution, five daily 4 mg/kg IP): 10384 ng/mL
AUC (0 to ∞) ([1]; Solution, single 4 mg/kg IP): 210.336 µg·h/mL
Cmax ([1]; Solution, single 4 mg/kg IP): 4071 ng/mL
Half Life ([1]; Solution, single 4 mg/kg IP): 29.7 h
Tmax ([1]; Solution, single 4 mg/kg IP): 1 h
Cmax ([1]; Suspension, five daily 10 mg/kg Oral): 5780 ng/mL
AUC (0 to ∞) [1, 6]: 187.7 µg·h/mL
Cmax [1, 6]: 3680 ng/mL
Half Life [1, 6]: 28.4 h
Tmax [1, 6]: 24 h
AUC (0 to ∞) ([1]; Suspension, single 12 mg/kg IP): 550.846 µg·h/mL
Cmax ([1]; Suspension, single 12 mg/kg IP): 13068 ng/mL
Half Life ([1]; Suspension, single 12 mg/kg IP): 26.4 h
Tmax ([1]; Suspension, single 12 mg/kg IP): 1 h
effect of oral formulation variations on amount of gold absorbed ([1]; oral 10 mg/kg, various suspensions and a solution): unable to alter the amount of auranofin (gold) absorbed
mutation effects [2]: no m utation effects
absorption after oral dosing [3]: 26%
blood gold in plasma proteins [3]: 17%
blood gold in red blood cells [3]: 82%
urinary excretion [3]: 16%
elimination in feces ([3]; within 21 days): 83%
plaque-forming cells (mouse spleen cells): marked inhibition
antidiuretic effect [4]: slight antidiuretic effect
chronic toxicity, histological examination ([5]; oral 3.6, 12 and 23 mg/kg/day, 12 months): dose-related karyomegaly and cytomegaly of the renal tubular epithelial
subacute toxicity findings ([5]; oral 3.6, 12 and 36 mg/kg/day, 3 months): Dose-related increase in salivation, decrease in hemoglobin
adenomas of the renal cortical tubular epithelium ([5]; oral, 12 months, 23 mg/kg/day): occurred in 2 females in the high dose
